The EC50 is the concentration that produces a half-maximal response.

What all share (test): microbe, parasite or virus in culture
What all share (type): functional, organism-based
Settings in all cases: A/Guangzhou/GIRD/07/2009 (H1N1), MDCK

For test [1], the system named is Influenza A virus.
Test [2] relates to Influenza A virus. This is another data set of the same source.
Test [3] deals with Influenza A virus. This is another data set of the same source.
Test [4] concerns Influenza A virus. The source holds these as a separate data set.
Test [5] relates to Influenza A virus. The source holds these as a separate data set.
In test [6] the test system is Influenza A virus. This is another data set of the same source.
For test [7], the system named is Influenza A virus. This is another data set of the same source.
Test [8] concerns Influenza A virus. The source holds these as a separate data set.
The subject of test [9] is Influenza A virus. The source holds these as a separate data set.

Each structure is given as a SMILES string.

With `C[C@@H]1C2CC(C[C@H]1NCc1sccc1C1CC1)C2(C)C` (single isomer, unassigned), the concentration for a half-maximal effect (EC50) in test [1] came to 0.34 µM; in test [2] it was 0.32 µM; in test [3] it was 1.7 µM; in test [4], 8.7 µM; in test [5], 13.8 µM; in test [6], 25.6 µM. In addition, the EC50 in test [7], in test [8] and in test [9] was more than 43 µM throughout.

Source of the values: ChEMBL document CHEMBL4130623, “Discovery of Highly Potent Pinanamine-Based Inhibitors against Amantadine- and Oseltamivir-Resistant Influenza A Viruses” (J Med Chem, 2018).
